According to the supplement of paper PMC4932681:

Assays:
Experiment in all cases: viability inhibition at highest dose (% inhibition); higher = more growth inhibition
BT-474 Tam1 = details: 4-OH-tamoxifen in medium 1 µM; 72 h
Procedure: (§1)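 Percent inhibition of viability (CellTiter-Glo, 72 h) at the highest tested concentration (D5), normalised to DMSO (0%) and 100 µM benzethonium chloride (100%). Resistant lines and the 'in 1µM tamoxifen' arms were tested in 1 µM 4-OH-tamoxifen.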

BT-474 Tam2 = details: 4-OH-tamoxifen in medium 1 µM; 72 h
Procedure: as §1

BT-474 = details: 72 h
Procedure: as §1

MCF-7 Tam1 = details: 4-OH-tamoxifen in medium 1 µM; 72 h
Procedure: as §1

MCF-7 = details: 72 h
Procedure: as §1

T-47D Tam1 = details: 4-OH-tamoxifen in medium 1 µM; 72 h
Procedure: as §1

T-47D Tam2 = details: 4-OH-tamoxifen in medium 1 µM; 72 h
Procedure: as §1

T-47D = details: 72 h
Procedure: as §1

ZR-75-1 Tam1 = details: 4-OH-tamoxifen in medium 1 µM; 72 h
Procedure: as §1

ZR-75-1 Tam2 = details: 4-OH-tamoxifen in medium 1 µM; 72 h
Procedure: as §1

ZR-75-1 = details: 72 h
Procedure: as §1

| Compound | viability inhibition at highest dose (BT-474 Tam1) | viability inhibition at highest dose (BT-474 Tam2) | viability inhibition at highest dose (BT-474; 4-OH-tamoxifen in medium 0 µM) | viability inhibition at highest dose (BT-474; 4-OH-tamoxifen in medium 1 µM) | viability inhibition at highest dose (MCF-7 Tam1) | viability inhibition at highest dose (MCF-7; 4-OH-tamoxifen in medium 0 µM) | viability inhibition at highest dose (MCF-7; 4-OH-tamoxifen in medium 1 µM) | viability inhibition at highest dose (T-47D Tam1) | viability inhibition at highest dose (T-47D Tam2) | viability inhibition at highest dose (T-47D; 4-OH-tamoxifen in medium 0 µM) | viability inhibition at highest dose (T-47D; 4-OH-tamoxifen in medium 1 µM) | viability inhibition at highest dose (ZR-75-1 Tam1) | viability inhibition at highest dose (ZR-75-1 Tam2) | viability inhibition at highest dose (ZR-75-1; 4-OH-tamoxifen in medium 0 µM) | viability inhibition at highest dose (ZR-75-1; 4-OH-tamoxifen in medium 1 µM) |
| --- | --- | --- | --- | --- | --- | --- | --- | --- | --- | --- | --- | --- | --- | --- | --- |
| Nc1nc(Cl)nc2c1ncn2[C@@H]1O[C@H](CO)[C@@H](O)[C@@H]1F [Clofarabine] (drug 10000 nM) | -21.8 | -3.66 | -7.9 | -34.5 | -1.02 | 32.2 | 10.4 | 38.6 | 27.8 | 35.1 | 43 | 23.6 | 22.2 | 21.8 | 14.8 |
| CCOc1cc2ncc(C#N)c(Nc3ccc(OCc4ccccn4)c(Cl)c3)c2cc1NC(=O)/C=C/CN(C)C [Neratinib] (drug 1000 nM) | 97.4 | 97.1 | 83.2 | 95 | 8.88 | -5.52 | 24.9 | 32.5 | 32.5 | 19 | 1.93 | 2.29 | 9.49 | -13 | 9.01 |
| c1cc(CN2CCCNCCNCCCNCC2)ccc1CN1CCCNCCNCCCNCC1 [Plerixafor] (drug 2500 nM) | 3.09 | 1.19 | 4.13 | -27.6 | -8.37 | -2.68 | 1.01 | 2.69 | 1.1 | -9.65 | -11.9 | 1.99 | 4.58 | -5.05 | 1.12 |
| Cc1sc2c(c1C)C(c1ccc(Cl)cc1)=N[C@@H](CC(=O)OC(C)(C)C)c1nnc(C)n1-2 [(+)JQ1] (drug 10000 nM) | 75 | 76.6 | 31.3 | 68.4 | 15.2 | 52.8 | 59.6 | 46.9 | 29.1 | 34.3 | 16.5 | 43.3 | 37.8 | 29.8 | 30.9 |
| C[C@@]1(C(=O)Nc2ccc(F)nc2)CCCN1c1nc(Nc2cc(C3CC3)n[nH]2)c2cccn2n1 (drug 10000 nM) | 15.1 | 6.42 | 13 | 23.1 | 68.9 | 67.7 | 81.4 | 46.5 | 59.2 | 48.6 | 41.9 | -16.4 | -9.78 | -26.3 | -1.41 |
| N#CC[C@H](C1CCCC1)n1cc(-c2ncnc3[nH]ccc23)cn1 (drug 10000 nM) | -28.1 | -31.9 | -21.3 | -53.3 | -11.4 | 1.33 | -20.6 | -14.3 | -5.81 | -12.9 | -14.9 | -14.2 | -7.38 | -0.421 | -1.41 |
| O=C(O)CCCc1ccc(N(CCCl)CCCl)cc1 [Chlorambucil] (drug 10000 nM) | -1.33 | -11.1 | -5.56 | -5.81 | -8.39 | 2.18 | -4.5 | -7.66 | 9.69 | -20.9 | 1.91 | 3.96 | -11.1 | -4.67 | -2.49 |
| CCN(CC)CCNC(=O)c1c(C)[nH]c(/C=C2\C(=O)Nc3ccc(F)cc32)c1C (drug 1000 nM) | 13.8 | 1.68 | -3.86 | 33.8 | 7.78 | -3.88 | -9.09 | 6.06 | 3.79 | -6.3 | 13.4 | -5.76 | 2.39 | 5.31 | -5.7 |
| CC/C(=C(\c1ccc(O)cc1)c1ccc(OCCN(C)C)cc1)c1ccccc1 [4-hydroxytamoxifen] (drug 10000 nM) | 97.8 | 96 | 23.3 | 97.2 | 46.3 | 52.3 | 83.1 | 38.4 | 79.7 | 20.4 | 59 | 17.8 | 21.5 | 8.03 | 33.1 |
| Cc1c(N)nc([C@H](CC(N)=O)NC[C@H](N)C(N)=O)nc1C(=O)N[C@H](C(=O)N[C@H](C)[C@@H](O)[C@H](C)C(=O)N[C@H](C(=O)NCCc1nc(-c2nc(C(=O)NCCC[S+](C)C)cs2)cs1)[C@@H](C)O)[C@@H](OC1OC(CO)C(O)C(O)C1OC1OC(CO)C(O)C(OC(N)=O)C1O)c1cnc[nH]1 (stereo not given in full) [Bleomycin] (drug 10000 nM) | -4.38 | -5.24 | -15.7 | -12 | -1.39 | 12.6 | 11.9 | 23.9 | -17.7 | 19.4 | -2.9 | 12.1 | -0.492 | 22.4 | 9.45 |
| COc1cc2c(N3CCN(C(=O)Nc4ccc(OC(C)C)cc4)CC3)ncnc2cc1OCCCN1CCCCC1 [Tandutinib] (drug 1000 nM) | -0.467 | -13.2 | -11.4 | -9.77 | -14.2 | -5.26 | -13.7 | -4.68 | 5.77 | -12.3 | -11.9 | 1.06 | -7.47 | -10 | -3.58 |
| CCCCC/C=C/C=C1/C(=O)C=C[C@@H]1C/C=C\CCCC(=O)O [15D-PGJ2] (drug 800 nM) | -6.35 | -6.87 | -7.22 | -14.5 | -5.28 | -3.98 | -2.34 | 0.0444 | 19.6 | -18.6 | -6.02 | -1.15 | -2.77 | -12.7 | 5.41 |
| COc1cccc2cc(-c3nc([C@H]4CC[C@H](C(=O)O)CC4)n4ncnc(N)c34)[nH]c12 [OSI-027] (drug 10000 nM) | 38.1 | 35.6 | 35.5 | 47.5 | 30.1 | 44.4 | 43.9 | 55.6 | 38 | 62.6 | 42.7 | 52.6 | 65.5 | 60.5 | 52.9 |
| CC(=O)Nc1ccc(C(=O)Nc2ccccc2N)cc1 [Tacedinaline (CI-994)] (drug 1000 nM) | -4.04 | -4.77 | 1.78 | -3.82 | 0.399 | -10.9 | -11.9 | 6.74 | 15.3 | 0.774 | 11.3 | -0.987 | 6.17 | -0.612 | 5.35 |
